Drawing on US20190174760A1, “N-ALKYLSULFONYL CONDENSED HETEROCYCLIC COMPOUND OR SALT THEREOF, INSECTICIDE COMPRISING THE COMPOUND, AND METHOD FOR USING THE INSECTICIDE” (Nihon Nohyaku Co., Ltd., priority 2016, published 2019), this text covers mortality for 4 compounds.

In one experiment the test system is Plutella xylostella. In words: Insecticidal test on Plutella xylostella (dip of Chinese cabbage seedlings with laid eggs). Type of experiment: in vivo. The conditions noted are these: 144 h, seedlings with laid eggs dipped about 30 seconds, 25° C., 6 days after dip treatment, read-out: insecticidal efficacy (corrected mortality rate) on Plutella xylostella. The source says: Insecticidal Test on Plutella xylostella
Adults of Plutella xylostella were released onto Chinese cabbage seedlings and allowed to lay eggs thereon. At 2 days after the release of the adults, the Chinese cabbage seedlings with laid eggs were dipped for about 30 seconds in agrochemical formulations diluted to 500 ppm, each of which contained a different compound represented by the general formula (1) of the present invention as an active ingredient. After air-dried, the seedlings were kept in a thermostatic chamber at 25° C. At 6 days after the dip treatment, the number of hatched larvae per plot was counted, the mortality rate was calculated according to the formula shown below, and the insecticidal efficacy was evaluated according to the criteria of Test Example 2. This test was conducted in triplicate using 10 adults of Plutella xylostella per plot.
Corrected mortality rate (%)=100×(Number of hatched larvae in a non-treatment plot−Number of hatched larvae in a treatment plot)/Number of hatched larvae in a non-treatment plot [Math. 3]

The subject of another experiment is Laodelphax striatellus. Briefly: Insecticidal test on Laodelphax striatellus (rice seedling dip). The experiment is classed as in vivo. The conditions noted are these: 192 h, rice seedlings dipped 30 seconds, 3rd-instar larvae, 8 days after inoculation, read-out: insecticidal efficacy (corrected mortality rate) on Laodelphax striatellus. From the text:
Insecticidal Test on Laodelphax striatellus
The compounds represented by the general formula (1) of the present invention or salts thereof were separately dispersed in water and diluted to 500 ppm. Rice plant seedlings (variety: Nihonbare) were dipped in the agrochemical dispersions for 30 seconds. After air-dried, each seedling was put into a separate glass test tube and inoculated with ten 3rd-instar larvae of Laodelphax striatellus, and then the glass test tubes were capped with cotton plugs. At 8 days after the inoculation, the numbers of surviving larvae and dead larvae were counted, the corrected mortality rate was calculated according to the formula shown below, and the insecticidal efficacy was evaluated according to the criteria shown below.
Corrected mortality rate (%)=100×(Survival rate in a non-treatment plot−Survival rate in a treatment plot)/Survival rate in a non-treatment plot [Math. 2]
A: the corrected mortality rate is 100%. B: the corrected mortality rate is 90 to 99%. C: the corrected mortality rate is 80 to 89%. D: the corrected mortality rate is 50 to 79%.

What is called mortality is the percentage killed.

SMILES strings stand for the structures.

With `CCS(=O)(=O)n1c(-c2nc3cc(C(F)(F)C(F)(F)F)nnc3n2C)cc2ccccc21` [Compound 1-33, 2-(1-ethylsulfonylindol-2-yl)-3-methyl-6-pentafluoroethyl-3H-imidazo[4,5-c]pyridazine], the mortality at 500 ppm in the experiment with Plutella xylostella and with Laodelphax striatellus was 100% throughout. For `CCS(=O)(=O)n1c(-c2nc3cc(C(F)(F)C(F)(F)F)nnc3n2C)cc2ccc(F)cc21` [Compound 1-65, 2-(1-ethylsulfonyl-6-fluoroindol-2-yl)-3-methyl-6-pentafluoroethyl-3H-imidazo[4,5-c]pyridazine], the mortality at 500 ppm in the experiment on Plutella xylostella and in the experiment with Laodelphax striatellus was 100% throughout. `CCS(=O)(=O)n1c(-c2nc3cc(C(F)(F)F)cnc3n2C)cc2cc(C(F)(F)F)ccc21` [Compound 2-11, 2-(1-ethylsulfonyl-5-trifluoromethylindol-2-yl)-3-methyl-6-trifluoromethyl-3H-imidazo[4,5-b]pyridine]: the mortality at 500 ppm in the experiment with Plutella xylostella and in the experiment with Laodelphax striatellus was 100% in each case. With `CCS(=O)(=O)n1c(-c2nc3cc(SC(F)(F)F)ccc3o2)cc2ccccc21` [Compound 3-1, 2-(1-ethylsulfonylindol-2-yl)-5-trifluoromethylthiobenzo[d]oxazole], the mortality at 500 ppm in the experiment on Plutella xylostella came out at 100%.
